Reference: PubChem BioAssay (NCI)
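Briefly, cells in 96-well plates were exposed to five compound concentrations for 48 h, and endpoints were estimated by linear interpolation. Abbreviation: GI50, concentration required for 50% inhibition of growth. At the TGI there is no net growth.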

Experiments:
Experiment in all cases: NCI tumour cell line growth inhibition, 48 h
HOP-62 NSCLC = tested on: HOP-62 NSCLC
HCT-116 colon = tested on: HCT-116 colon
MCF7 breast = tested on: MCF7 breast
MOLT-4 leukemia = tested on: MOLT-4 leukemia
HT29 colon = tested on: HT29 colon
BT-549 breast = tested on: BT-549 breast
SNB-75 CNS = tested on: SNB-75 CNS
NCI-H460 lung = tested on: NCI-H460 lung
MALME-3M melanoma = tested on: MALME-3M melanoma
TK-10 renal = tested on: TK-10 renal
A549 NSCLC = tested on: A549 NSCLC
NCI-H226 lung = tested on: NCI-H226 lung
DU-145 prostate = tested on: DU-145 prostate
HL-60(TB) leukemia = tested on: HL-60(TB) leukemia
SW-620 colon = tested on: SW-620 colon
MDA-MB-231 breast = tested on: MDA-MB-231 breast
SNB-19 CNS = tested on: SNB-19 CNS
U251 CNS = tested on: U251 CNS
LOX IMVI melanoma = tested on: LOX IMVI melanoma
IGROV1 ovarian = tested on: IGROV1 ovarian
NCI-H522 lung = tested on: NCI-H522 lung
T-47D breast = tested on: T-47D breast
PC-3 prostate = tested on: PC-3 prostate
CCRF-CEM leukemia = tested on: CCRF-CEM leukemia
RPMI-8226 leukemia = tested on: RPMI-8226 leukemia
HS 578T breast = tested on: HS 578T breast
OVCAR-8 ovarian = tested on: OVCAR-8 ovarian
SF-539 CNS = tested on: SF-539 CNS
A498 renal = tested on: A498 renal
OVCAR-4 ovarian = tested on: OVCAR-4 ovarian
NCI/ADR-RES ovarian = tested on: NCI/ADR-RES ovarian
M14 melanoma = tested on: M14 melanoma
SK-MEL-28 melanoma = tested on: SK-MEL-28 melanoma
RXF 393 renal = tested on: RXF 393 renal
OVCAR-5 ovarian = tested on: OVCAR-5 ovarian
CAKI-1 renal = tested on: CAKI-1 renal
SN12C renal = tested on: SN12C renal
UACC-257 melanoma = tested on: UACC-257 melanoma
HCT-15 colon = tested on: HCT-15 colon
786-0 renal = tested on: 786-0 renal
COLO 205 colon = tested on: COLO 205 colon
K-562 leukemia = tested on: K-562 leukemia
SK-MEL-5 melanoma = tested on: SK-MEL-5 melanoma
KM12 colon = tested on: KM12 colon
NCI-H23 lung = tested on: NCI-H23 lung
SF-295 CNS = tested on: SF-295 CNS
UACC-62 melanoma = tested on: UACC-62 melanoma
SK-MEL-2 melanoma = tested on: SK-MEL-2 melanoma
SF-268 CNS = tested on: SF-268 CNS
OVCAR-3 ovarian = tested on: OVCAR-3 ovarian
HOP-92 NSCLC = tested on: HOP-92 NSCLC
ACHN renal = tested on: ACHN renal
HCC-2998 colon = tested on: HCC-2998 colon
SK-OV-3 ovarian = tested on: SK-OV-3 ovarian
EKVX NSCLC = tested on: EKVX NSCLC
MDA-MB-435 = tested on: MDA-MB-435
UO-31 renal = tested on: UO-31 renal

COc1cc2cc(Oc3ccc(NC(=O)Nc4cc(C(F)(F)F)cc(C(F)(F)F)c4)cc3)c(C)nc2cc1OCCN1CCOCC1
GI50 (HOP-62 NSCLC): 2200 nM
TGI (HOP-62 NSCLC): 9160 nM
GI50 (HCT-116 colon): 1420 nM
TGI (HCT-116 colon): 5330 nM
GI50 (MCF7 breast): 1430 nM
TGI (MCF7 breast): 3910 nM
GI50 (MOLT-4 leukemia): 1320 nM
TGI (MOLT-4 leukemia): 4290 nM
GI50 (HT29 colon): 1750 nM
TGI (HT29 colon): 7140 nM
GI50 (BT-549 breast): 1870 nM
TGI (BT-549 breast): 7350 nM
GI50 (SNB-75 CNS): 1020 nM
TGI (SNB-75 CNS): 4480 nM
GI50 (NCI-H460 lung): 1660 nM
TGI (NCI-H460 lung): 5520 nM
GI50 (MALME-3M melanoma): 1200 nM
TGI (MALME-3M melanoma): 3790 nM
GI50 (TK-10 renal): 3700 nM
TGI (TK-10 renal): 12500 nM
GI50 (A549 NSCLC): 1720 nM
TGI (A549 NSCLC): 7230 nM
GI50 (NCI-H226 lung): 1600 nM
TGI (NCI-H226 lung): 6530 nM
GI50 (DU-145 prostate): 1930 nM
TGI (DU-145 prostate): 7050 nM
GI50 (HL-60(TB) leukemia): 1620 nM
TGI (HL-60(TB) leukemia): 4930 nM
GI50 (SW-620 colon): 1720 nM
TGI (SW-620 colon): 7170 nM
GI50 (MDA-MB-231 breast): 1700 nM
TGI (MDA-MB-231 breast): 6450 nM
GI50 (SNB-19 CNS): 1880 nM
TGI (SNB-19 CNS): 7420 nM
GI50 (U251 CNS): 1130 nM
TGI (U251 CNS): 2850 nM
GI50 (LOX IMVI melanoma): 1460 nM
TGI (LOX IMVI melanoma): 5090 nM
GI50 (IGROV1 ovarian): 1540 nM
TGI (IGROV1 ovarian): 6900 nM
GI50 (NCI-H522 lung): 1630 nM
TGI (NCI-H522 lung): 7290 nM
GI50 (T-47D breast): 2040 nM
TGI (T-47D breast): 10200 nM
GI50 (PC-3 prostate): 1180 nM
TGI (PC-3 prostate): 5160 nM
GI50 (CCRF-CEM leukemia): 1410 nM
TGI (CCRF-CEM leukemia): 6570 nM
GI50 (RPMI-8226 leukemia): 840 nM
TGI (RPMI-8226 leukemia): 2120 nM
GI50 (HS 578T breast): 1560 nM
TGI (HS 578T breast): 7000 nM
GI50 (OVCAR-8 ovarian): 1670 nM
TGI (OVCAR-8 ovarian): 12800 nM
GI50 (SF-539 CNS): 1540 nM
TGI (SF-539 CNS): 5250 nM
GI50 (A498 renal): 1800 nM
TGI (A498 renal): 6690 nM
GI50 (OVCAR-4 ovarian): 1880 nM
TGI (OVCAR-4 ovarian): 6950 nM
GI50 (NCI/ADR-RES ovarian): 1590 nM
TGI (NCI/ADR-RES ovarian): 7210 nM
GI50 (M14 melanoma): 1510 nM
TGI (M14 melanoma): 5880 nM
GI50 (SK-MEL-28 melanoma): 1800 nM
TGI (SK-MEL-28 melanoma): 6940 nM
GI50 (RXF 393 renal): 1120 nM
TGI (RXF 393 renal): 2990 nM
GI50 (OVCAR-5 ovarian): 2180 nM
TGI (OVCAR-5 ovarian): 7970 nM
GI50 (CAKI-1 renal): 1470 nM
TGI (CAKI-1 renal): 5680 nM
GI50 (SN12C renal): 1490 nM
TGI (SN12C renal): 5480 nM
GI50 (UACC-257 melanoma): 1400 nM
TGI (UACC-257 melanoma): 4240 nM
GI50 (HCT-15 colon): 1100 nM
TGI (HCT-15 colon): 2770 nM
GI50 (786-0 renal): 1280 nM
TGI (786-0 renal): 3650 nM
GI50 (COLO 205 colon): 1020 nM
TGI (COLO 205 colon): 2180 nM
GI50 (K-562 leukemia): 1410 nM
TGI (K-562 leukemia): 5500 nM
GI50 (SK-MEL-5 melanoma): 885 nM
TGI (SK-MEL-5 melanoma): 1660 nM
GI50 (KM12 colon): 1530 nM
TGI (KM12 colon): 5950 nM
GI50 (NCI-H23 lung): 1660 nM
TGI (NCI-H23 lung): 6690 nM
GI50 (SF-295 CNS): 1140 nM
TGI (SF-295 CNS): 2920 nM
GI50 (UACC-62 melanoma): 1670 nM
TGI (UACC-62 melanoma): 6900 nM
GI50 (SK-MEL-2 melanoma): 1740 nM
TGI (SK-MEL-2 melanoma): 6910 nM
GI50 (SF-268 CNS): 1980 nM
TGI (SF-268 CNS): 8060 nM
GI50 (OVCAR-3 ovarian): 1430 nM
TGI (OVCAR-3 ovarian): 5280 nM
GI50 (HOP-92 NSCLC): 900 nM
TGI (HOP-92 NSCLC): 2710 nM
GI50 (ACHN renal): 1530 nM
TGI (ACHN renal): 5420 nM
GI50 (HCC-2998 colon): 2090 nM
TGI (HCC-2998 colon): 6970 nM
GI50 (SK-OV-3 ovarian): 2090 nM
TGI (SK-OV-3 ovarian): 8500 nM
GI50 (EKVX NSCLC): 1640 nM
TGI (EKVX NSCLC): 6680 nM
GI50 (MDA-MB-435): 1900 nM
TGI (MDA-MB-435): 6720 nM
GI50 (UO-31 renal): 1010 nM
TGI (UO-31 renal): 4060 nM
